Results as given in US11938208B2, “Antimicrobial mixture” (SYMRISE AG, priority 2019, dated 2024).

Key:
E.coli (ATCC #8739) = assay: Preservative efficacy test (challenge test) in an anionic emulsion of pH 5.8; assay type: cell-based; details: for LR (log reduction), day 2 / LR (log reduction), day 7 / LR (log reduction), day 14 / LR (log reduction), day 21 / LR (log reduction), day 28: log 10 reduction vs initial inoculum; for surviving microorganisms (total aerobic plate count), day 2: day 2 after inoculation; for surviving microorganisms (total aerobic plate count), day 2 / surviving microorganisms (total aerobic plate count), day 7 / surviving microorganisms (total aerobic plate count), day 14 / surviving microorganisms (total aerobic plate count), day 21 / surviving microorganisms (total aerobic plate count), day 28: storage 22.5±2.5° C., TNTC = too numerous to count; for surviving microorganisms (total aerobic plate count), day 7: day 7 after inoculation; for surviving microorganisms (total aerobic plate count), day 14: day 14 after inoculation; for surviving microorganisms (total aerobic plate count), day 21: day 21 after inoculation; for surviving microorganisms (total aerobic plate count), day 28: day 28 after inoculation
Method: This test is a reference method that is used to evaluate the preservative efficacy of a test formulation (in the present case an anionic emulsion of pH 5.8 comprising various fatty esters and fatty alcohols as oil bodies and glyceryl stearate citrate as the emulsifier. The formula was inoculated with known populations of microorganisms (0.2 ml of calibrated inoculums into 20 g of the test formulation) and the number of surviving microorganisms was calculated at defined intervals during a 28-day period. The inoculated test products were stored at 22.5±2.5° C. for the 28-day duration. The surviving microorganisms were enumerated via the total aerobic plate count method. For each time point, the log 10 reductions were calculated and were compared to the passing criteria.

mold = details: moist alfalfa hay; cited from earlier work
[1] = administered intraperitoneally; cited from earlier work
[2] = constituents of Tagetes mendocina; cited from earlier work

Row | SMILES | LR (log reduction), day 2 (E.coli (ATCC #8739)) | surviving microorganisms (total aerobic plate count), day 2 (E.coli (ATCC #8739)) | LR (log reduction), day 7 (E.coli (ATCC #8739)) | surviving microorganisms (total aerobic plate count), day 7 (E.coli (ATCC #8739)) | LR (log reduction), day 14 (E.coli (ATCC #8739)) | surviving microorganisms (total aerobic plate count), day 14 (E.coli (ATCC #8739)) | LR (log reduction), day 21 (E.coli (ATCC #8739)) | surviving microorganisms (total aerobic plate count), day 21 (E.coli (ATCC #8739)) | LR (log reduction), day 28 (E.coli (ATCC #8739)) | surviving microorganisms (total aerobic plate count), day 28 (E.coli (ATCC #8739)) | prevention of mold growth (mold) | reduction of subcutaneous inflammation [1] | LR (log reduction), day 14 (E.coli (ATCC #8739); listed as 0.35% SymSave H) | LR (log reduction), day 21 (E.coli (ATCC #8739); listed as 0.35% SymSave H) | surviving microorganisms (total aerobic plate count), day 21 (E.coli (ATCC #8739); listed as 0.35% SymSave H) | LR (log reduction), day 28 (E.coli (ATCC #8739); listed as 0.35% SymSave H) | surviving microorganisms (total aerobic plate count), day 28 (E.coli (ATCC #8739); listed as 0.35% SymSave H) | antioxidant activity [2]
1 | CC(C)=CCC[C@](C)(O)[C@@H]1CC=C(C)CC1 [0.6% D100, Bisabolol] | LR 0 | TNTC | LR 0 | TNTC | LR 0 | TNTC | LR 0 | TNTC | LR 0 | TNTC |  |  |  |  |  |  |  | 
2 | CC(=O)c1ccc(O)cc1 [0.25% SymSave H, 4-hydroxyacetophenone] | LR 0 | TNTC | LR 0 | TNTC | LR 0 | TNTC | LR 3.94 | 6.4 × 10^2 | LR 5.35 | 2.5 × 10^1 | not prevent mold growth | reducing subcuteaneous inflammation | LR 2.49 | LR 6 | <10 | LR 6 | <10 | one of the active constituents
